This is an account of results in ChEMBL document CHEMBL3039007, “Structure-based identification of OATP1B1/3 inhibitors” (Mol Pharmacol, 2013).

Data set [1] concerns the target T1, Solute carrier organic anion transporter family member 1B1 (Homo sapiens, UniProt Q9Y6L6).
T1 sequence (Q9Y6L6 whole entry): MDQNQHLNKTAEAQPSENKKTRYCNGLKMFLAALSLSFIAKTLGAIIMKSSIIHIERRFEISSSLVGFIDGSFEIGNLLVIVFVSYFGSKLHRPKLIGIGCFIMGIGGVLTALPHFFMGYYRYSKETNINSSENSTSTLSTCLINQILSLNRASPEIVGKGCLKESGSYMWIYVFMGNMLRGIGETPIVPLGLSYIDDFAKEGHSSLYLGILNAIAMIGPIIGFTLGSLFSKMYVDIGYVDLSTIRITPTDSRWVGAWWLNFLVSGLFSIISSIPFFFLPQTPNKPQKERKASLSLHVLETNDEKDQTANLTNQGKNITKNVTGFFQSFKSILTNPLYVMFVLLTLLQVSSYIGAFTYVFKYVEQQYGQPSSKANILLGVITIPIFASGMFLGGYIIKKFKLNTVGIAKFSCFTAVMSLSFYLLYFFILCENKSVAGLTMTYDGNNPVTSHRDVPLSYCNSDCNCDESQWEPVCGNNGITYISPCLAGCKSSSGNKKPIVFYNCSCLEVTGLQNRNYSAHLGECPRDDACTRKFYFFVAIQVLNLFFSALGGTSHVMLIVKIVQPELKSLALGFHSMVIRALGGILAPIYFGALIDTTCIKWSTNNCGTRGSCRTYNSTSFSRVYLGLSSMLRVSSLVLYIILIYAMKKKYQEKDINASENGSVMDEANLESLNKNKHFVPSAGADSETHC
Conditions: chinese hamster, cho, 10 µM.

The target of data set [2] is T2, Solute carrier organic anion transporter family member 1B3 (Homo sapiens, UniProt Q9NPD5).
T2 sequence (Q9NPD5 whole entry): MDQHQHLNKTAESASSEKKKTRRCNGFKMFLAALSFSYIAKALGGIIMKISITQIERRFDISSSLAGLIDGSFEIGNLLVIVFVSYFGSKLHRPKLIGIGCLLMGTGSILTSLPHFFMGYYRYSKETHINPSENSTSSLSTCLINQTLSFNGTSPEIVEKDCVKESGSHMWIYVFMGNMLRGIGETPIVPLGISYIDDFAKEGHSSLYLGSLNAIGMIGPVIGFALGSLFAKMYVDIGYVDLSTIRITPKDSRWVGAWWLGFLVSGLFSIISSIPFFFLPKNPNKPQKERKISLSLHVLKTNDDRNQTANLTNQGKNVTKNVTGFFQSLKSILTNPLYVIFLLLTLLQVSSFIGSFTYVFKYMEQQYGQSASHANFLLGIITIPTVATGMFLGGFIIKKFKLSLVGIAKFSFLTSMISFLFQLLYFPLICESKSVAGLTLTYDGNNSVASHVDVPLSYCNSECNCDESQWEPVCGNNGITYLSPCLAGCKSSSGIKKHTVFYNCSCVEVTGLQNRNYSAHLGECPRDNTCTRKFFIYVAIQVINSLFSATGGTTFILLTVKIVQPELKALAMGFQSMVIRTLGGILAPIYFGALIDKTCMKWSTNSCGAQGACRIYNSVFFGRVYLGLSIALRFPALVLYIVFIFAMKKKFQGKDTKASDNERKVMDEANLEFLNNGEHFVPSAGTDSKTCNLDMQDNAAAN
The conditions noted are these: chinese hamster, cho, 10 µM.

Structures are written as SMILES. Positions of bridges follow the written chain, without caps; N, C: chain ends. Non-standard residues stand in square brackets, D forms with d. Residues, ends and D or L forms follow the SMILES beside them. *: point of attachment. Ileψ(thiazoline)Cys = CC[C@H](C)[C@H](N)C1=N[C@H](C(=O)*)CS1; dOrn = NCCC[C@@H](N)C(=O)O

On to `Cn1cnc([N+](=O)[O-])c1Sc1ncnc2nc[nH]c12` [AZATHIOPRINE], for which the values for the residual activity in data set [1] and in data set [2] were 128.4% and 107.3%, respectively.

With `O=C(O)CCCCCCCC(=O)O` [AZELAIC ACID], the residual activity (in general, the signal under treatment as a percentage of the control signal) in data set [1] amounted to 100.4%; in data set [2], 107.2%.

Consider `CN1CCCC(n2nc(Cc3ccc(Cl)cc3)c3ccccc3c2=O)CC1.Cl` (stereo not drawn) [AZELASTINE HYDROCHLORIDE], for which the values for the residual activity in data set [1] and in data set [2] were 43.45% and 134.9%, respectively.

Take `CC1(C)S[C@@H]2[C@H](NC(=O)[C@H](NC(=O)N3CCNC3=O)c3ccccc3)C(=O)N2[C@H]1C(=O)[O-].[Na+]` [AZLOCILLIN SODIUM]: the residual activity is 96.91% in data set [1] and 85.12% in data set [2].

As for `c1ccc(/N=N/c2ccccc2)cc1` [AZOBENZENE], the values for the residual activity in data set [1] and in data set [2] were 216.3% and 112.1%, respectively.

Take `CCOC(=O)OC(C)OC(=O)[C@@H]1N2C(=O)[C@@H](NC(=O)[C@H](N)c3ccccc3)[C@H]2SC1(C)C.Cl` (stereo partly drawn) [BACAMPICILLIN HYDROCHLORIDE]: the results for the residual activity in data set [1] and in data set [2] were 46.45% and 80.61%, respectively.

For `CC[C@H](C)[C@H](N)C1=N[C@H](C(=O)N[C@@H](CC(C)C)C(=O)N[C@H](CCC(=O)O)C(=O)N[C@H](C(=O)N[C@H]2CCCCNC(=O)[C@H](CC(N)=O)NC(=O)[C@@H](CC(=O)O)NC(=O)[C@H](Cc3cnc[nH]3)NC(=O)[C@@H](Cc3ccccc3)NC(=O)[C@H]([C@@H](C)CC)NC(=O)[C@@H](CCCN)NC2=O)[C@@H](C)CC)CS1` [BACITRACIN] ({Ileψ(thiazoline)Cys}-L[dE]IK[dOrn]I[dF]H[dD]N; lactam 4-C), the residual activity in data set [1] stood at 78.2%; in data set [2], 77.52%.

`NCC(CC(=O)O)c1ccc(Cl)cc1` (stereo not drawn) [BACLOFEN]: the residual activity in data set [1] was 80.8%; in data set [2], 102.2%.

On to `COc1cc(C)c(C(=O)Oc2cc(C)c(C(=O)O)c(O)c2C)c(O)c1C=O` [BAEOMYCESIC ACID], for which the residual activity in data set [1] was 23.01%; in data set [2] it was 46.77%.

On to `O=c1cc(-c2ccccc2)oc2cc(O)c(O)c(O)c12` [BAICALEIN], for which the results for the residual activity in data set [1] and in data set [2] were 91.06% and 90.2%, respectively.

For the molecule `CCCCCCCCCCCCCCCCCCOCC(O)CO` (stereo not drawn) [BATILOL], the residual activity amounted to 92.94% in data set [1] and 108.3% in data set [2].

On to `COc1cc2c3cc1Oc1cc(ccc1O)CC1c4c(cc(OC)c(O)c4Oc4ccc(cc4)CC3N(C)CC2)CCN1C` (stereo not drawn) [BEBEERINE], for which the residual activity in data set [1] amounted to 53.34%; in data set [2] it was 74.29%.

For the molecule `CCC(=O)OCC(=O)[C@@]1(OC(=O)CC)[C@@H](C)C[C@H]2[C@@H]3CCC4=CC(=O)C=C[C@]4(C)[C@@]3(Cl)[C@@H](O)C[C@@]21C` [BECLOMETHASONE DIPROPIONATE], the figures for the residual activity in data set [1] and in data set [2] were 41.53% and 14.78%, respectively.

For the molecule `NC[C@H]1O[C@H](O[C@H]2[C@H](O)[C@@H](O[C@H]3O[C@H](CO)[C@@H](O)[C@H](N)[C@H]3O)[C@H](N)C[C@@H]2N)[C@H](N)[C@@H](O)[C@@H]1O.O=S(=O)(O)O` [BEKANAMYCIN SULFATE], the residual activity in data set [1] was found to be 101.9%; in data set [2] it was 118.1%.

On to `CCOC(=O)[C@H](CCc1ccccc1)N[C@H]1CCc2ccccc2N(CC(=O)O)C1=O.Cl` [BENAZEPRIL HYDROCHLORIDE], for which the residual activity in data set [1] turned out to be 101.2%; in data set [2], 84.15%.

With `CNC(=O)Oc1cccc2c1OC(C)(C)O2` [BENDIOCARB], the residual activity in data set [1] is recorded as 88.1%; in data set [2] it was 84.46%.

`CC(Cc1cccc(C(F)(F)F)c1)NCCOC(=O)c1ccccc1.Cl` (stereo not drawn) [BENFLUOREX HYDROCHLORIDE]: the residual activity in data set [1] stood at 93.54%; in data set [2], 87.71%.

With `CCCCN(CC)c1c([N+](=O)[O-])cc(C(F)(F)F)cc1[N+](=O)[O-]` [BENFLURALIN], the residual activity in data set [1] amounted to 96.31%; in data set [2], 100.4%.

As to `Cl.NC(CO)C(=O)NNCc1ccc(O)c(O)c1O` (stereo not drawn) [BENSERAZIDE HYDROCHLORIDE], the residual activity worked out at 93.51% in data set [1] and 93.94% in data set [2].

Consider `CC(C)N1C(=O)c2ccccc2NS1(=O)=O` [BENTAZON], for which the residual activity stood at 109.9% in data set [1] and 96.3% in data set [2].

In the case of `Cl.N/C(=N\C(=O)c1nc(Cl)c(N)nc1N)NCc1ccccc1` [BENZAMIL HYDROCHLORIDE], the residual activity is listed as 93.84% in data set [1] and 105% in data set [2].

For `O=C1c2ccccc2-c2cccc3cccc1c23` [BENZANTHRONE], the residual activity is on record as 127.3% in data set [1] and 69.74% in data set [2].

With `CCOC(=O)c1ccc(N)cc1` [BENZOCAINE], the residual activity is on record as 129.5% in data set [1] and 100.6% in data set [2].

`NS(=O)(=O)c1cc2c(cc1Cl)N=C(CSCc1ccccc1)NS2(=O)=O` [BENZTHIAZIDE]: the figures for the residual activity in data set [1] and in data set [2] were 74.12% and 56.86%, respectively.

Consider `O=C(OCc1ccccc1)c1ccccc1` [BENZYL BENZOATE], for which the residual activity in data set [1] was found to be 125.1%; in data set [2], 74.09%.

As for `S=C=NCc1ccccc1` [BENZYL ISOTHIOCYANATE], the residual activity is 170.7% in data set [1] and 101.9% in data set [2].

As to `Cl.NNCc1ccccc1` [BENZYLHYDRAZINE HYDROCHLORIDE], the residual activity in data set [1] is recorded as 122.4%; in data set [2] it was 108.9%.

For `CC(C)COCC(CN(Cc1ccccc1)c1ccccc1)N1CCCC1.Cl.O` (stereo not drawn) [BEPRIDIL HYDROCHLORIDE], the residual activity in data set [1] is on record as 124.1%; in data set [2] it was 131.3%.

Turning to `COc1ccc2cc3[n+](cc2c1OC)CCc1cc2c(cc1-3)OCO2.[Cl-]` [BERBERINE CHLORIDE], the residual activity was 110.4% in data set [1] and 108.4% in data set [2].

For the molecule `COc1c2ccoc2cc2oc(=O)ccc12` [BERGAPTEN], the residual activity is 93.84% in data set [1] and 97.44% in data set [2].

As for `COc1c(O)cc2c(c1O)[C@@H]1O[C@H](CO)[C@@H](O)[C@H](O)[C@H]1OC2=O` [BERGENIN], the residual activity came to 14.59% in data set [1] and 94.52% in data set [2].

On to `C=C1CC/C=C(\C)CC[C@@H]2[C@@H]1CC2(C)C` [BETA-CARYOPHYLLENE], for which the residual activity is 99.94% in data set [1] and 88.67% in data set [2].

For the molecule `COc1cc([C@@H]2c3cc4c(c(O)c3C[C@H]3COC(=O)[C@@H]32)OCO4)cc(OC)c1OC` [BETA-PELTATIN A], the residual activity is reported as 78.87% in data set [1] and 101.7% in data set [2].

On to `C[N+](C)(C)CC(=O)O.[Cl-]` [BETAINE HYDROCHLORIDE], for which the residual activity in data set [1] turned out to be 82.22%; in data set [2] it was 113.7%.

For `CCCCC(=O)O[C@]1(C(=O)CO)[C@@H](C)C[C@H]2[C@@H]3CCC4=CC(=O)C=C[C@]4(C)[C@@]3(F)[C@@H](O)C[C@@]21C` [BETAMETHASONE VALERATE], the figures for the residual activity in data set [1] and in data set [2] were 38.6% and 10.24%, respectively.

`C[C@H]1C[C@H]2[C@@H]3CCC4=CC(=O)C=C[C@]4(C)[C@@]3(F)[C@@H](O)C[C@]2(C)[C@@]1(O)C(=O)CO` [BETAMETHASONE]: the residual activity in data set [1] is on record as 76.17%; in data set [2], 102.7%.

For the molecule `O=C(O)CCNC(=O)c1ccccc1` [BETAMIPRON], the residual activity in data set [1] is 116.1%; in data set [2] it was 92.61%.

On to `CC(C[N+](C)(C)C)OC(N)=O.[Cl-]` (stereo not drawn) [BETHANECHOL CHLORIDE], for which the residual activity in data set [1] was 111.1%; in data set [2] it was 100%.

With `C[N+]1(C)C[C@@H](O)C[C@@H]1C(=O)[O-]` [BETONICINE], the residual activity in data set [1] is given as 89.8%; in data set [2], 105.3%.
